# Values of other authors, collected in patent US20250179582A1, “METHODS FOR TREATING CANCER PATIENTS WITH HOMOLOGOUS RECOMBINATION DEFICIENCY BASED ON TEMPLATED INSERTIONS” (Memorial Sloan-Kettering Cancer Center, priority 2022, published 2025).
# Read-outs that look alike come from different tables or passages of the source.
# Tested on: relapsed high-grade serous ovarian/endometrioid/primary peritoneal/or fallopian carcinoma
# Conditions: rucaparib versus placebo
compound,measurement,setting,value
CNCc1ccc(-c2[nH]c3cc(F)cc4c3c2CCNC4=O)cc1 [rucaparib],progression-free survival hazard ratio (HR),"germline or somatic mutated BRCA1/2 cohort, patients with at least a partial response to platinum therapy",0.23
same,progression-free survival hazard ratio (HR),patients with high genomic LOH,0.44
same,progression-free survival hazard ratio (HR),patients with low genomic LOH,0.58
